Test results as given in PMC11509018, “Evaluation of the Role of Tanshinone I in an In Vitro System of Charcot-Marie-Tooth Disease Type 2N” (International Journal of Molecular Sciences, 2024).
Residue numbers refer to the chain shown, from its start.

How the values were obtained:
[1] = target: T1, AlaRS^E337K (Homo sapiens, UniProt P49588, E337K); test: Proteolytic digestion assay (trypsin, SDS-PAGE); details: three hours
T1 construct: made in house; host or cells: E. coli BL21 (DE3), pET-21a
T1 sequence (P49588 1-968 E337K): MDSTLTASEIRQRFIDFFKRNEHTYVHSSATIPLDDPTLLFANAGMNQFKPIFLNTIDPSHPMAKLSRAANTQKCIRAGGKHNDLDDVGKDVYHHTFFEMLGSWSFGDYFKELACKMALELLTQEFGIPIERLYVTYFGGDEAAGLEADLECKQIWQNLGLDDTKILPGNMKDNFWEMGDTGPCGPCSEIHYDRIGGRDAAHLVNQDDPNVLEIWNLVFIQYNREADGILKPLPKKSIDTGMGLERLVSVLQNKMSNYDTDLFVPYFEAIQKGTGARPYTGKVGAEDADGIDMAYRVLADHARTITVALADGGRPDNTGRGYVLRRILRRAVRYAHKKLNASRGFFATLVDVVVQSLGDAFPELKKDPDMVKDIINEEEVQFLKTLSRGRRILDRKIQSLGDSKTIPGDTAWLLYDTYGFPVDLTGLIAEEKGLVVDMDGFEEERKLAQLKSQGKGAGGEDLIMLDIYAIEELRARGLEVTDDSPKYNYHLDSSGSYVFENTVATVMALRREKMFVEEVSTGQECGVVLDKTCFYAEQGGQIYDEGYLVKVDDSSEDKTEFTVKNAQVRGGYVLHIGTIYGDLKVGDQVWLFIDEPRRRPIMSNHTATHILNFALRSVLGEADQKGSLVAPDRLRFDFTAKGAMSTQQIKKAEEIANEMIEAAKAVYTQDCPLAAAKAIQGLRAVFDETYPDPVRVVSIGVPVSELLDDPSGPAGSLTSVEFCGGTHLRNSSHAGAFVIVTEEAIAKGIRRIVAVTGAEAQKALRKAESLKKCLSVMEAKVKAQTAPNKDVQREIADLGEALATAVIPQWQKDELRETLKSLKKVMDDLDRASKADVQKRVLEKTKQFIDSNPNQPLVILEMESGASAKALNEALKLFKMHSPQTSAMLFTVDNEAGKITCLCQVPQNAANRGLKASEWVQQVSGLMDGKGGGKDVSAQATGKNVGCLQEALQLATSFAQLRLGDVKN
Excerpt: (§1) Furthermore, we examined the interaction of Tanshinone I with additional AlaRS CMT mutants capable of binding to Nrp1 and causing conformational changes by BLI and proteolysis assays on additional related mutants.
(§2) Figure 5 BLI and proteolytic digestion assay of AlaRS mutants with Tanshinone I. Binding sensorgrams for the interaction of Tanshinone I with immobilized AlaRS^R329H (A), AlaRS^G102R (C), AlaRS^R326W (E), and AlaRS^E337K (G). Each sensorgram contains five curves generated from five different concentrations. The KD values are presented as the mean ± SD and experiments were performed in triplicate. The AlaRS^N71Y (B), AlaRS^G102R (D), AlaRS^R326W (F), and AlaRS^E337K (H) proteins (in the presence and absence of Tanshinone I) were incubated with trypsin at different concentrations for three hours before the reactions were quenched, and the products were separated by SDS-PAGE.

[2] = target: T2, AlaRS^N71Y (Homo sapiens, UniProt P49588, N71Y); test: Proteolytic digestion assay (trypsin, SDS-PAGE); details: three hours
T2 construct: made in house; host or cells: E. coli BL21 (DE3), pET-21a
T2 sequence (P49588 1-968 N71Y): T1 sequence (P49588 1-968 E337K) with N71Y, K337E
Excerpt: as §1, §2

Cc1coc2c1C(=O)C(=O)c1c-2ccc2c(C)cccc12 [Tanshinone I]
Effect on proteolytic fragments / conformation [1]: altered band patterns after Tanshinone I treatment
Effect on proteolytic fragments / conformation [2]: significant conformational change
